LD50 and Ratio data for eight molecules are collected here from ChEMBL document CHEMBL3046473, “Effect on Insecticidal Activity of Substituents at the 1,4-Benzodioxanyl Moiety of Haedoxan” (1992).

A value given as a limit tells only on which side of the number the result lay.

Assay [1] has as its system Musca domestica. The assay is described as follows: Insecticidal activity against 3-day old Musca domestica (house fly) administered topically measured after 24 hr. Format: functional.
Assay [2] concerns Musca domestica. Kind of assay: Insecticidal activity against 3-day old Musca domestica (house fly) administered topically measured after 24 hr relative to (+)-haedoxan A. Format: functional.

For `COc1cc2c(cc1[C@H]1OC[C@]3(O)[C@@H](Oc4c(OC)cccc4OC)OC[C@H]13)OCCO2`, the LD50 with Musca domestica [1] was greater than 10 µg.

With `COc1cc2c(cc1[C@H]1OC[C@]3(O)[C@@H](Oc4c(OC)cccc4OC)OC[C@H]13)OC(CCl)CO2` (mixture of isomers), the Ratio with Musca domestica [2] came to 5e-05. In addition, in the assay on Musca domestica [1], the LD50 worked out at 5 µg.

As for `COc1cc2c(cc1[C@H]1OC[C@]3(O)[C@@H](Oc4c(OC)cccc4OC)OC[C@H]13)OC(CO)CO2` (mixture of isomers), the LD50 with Musca domestica [1] is greater than 10 µg.

For `COc1cc2c(cc1[C@H]1OC[C@]3(O)[C@@H](Oc4c(OC)cccc4OC)OC[C@H]13)OC(COC(C)(C)C)CO2` (mixture of isomers), in the assay with Musca domestica [2], the Ratio is on record as 0.0003. The LD50 with Musca domestica [1] was determined as 1 µg.

Regarding `COc1cc2c(cc1[C@H]1OC[C@]3(O)[C@@H](Oc4c(OC)cccc4OC)OC[C@H]13)OC(COCc1ccccc1)CO2` (mixture of isomers), the LD50 in the assay with Musca domestica [1] was greater than 10 µg.

With `COCC1COc2cc(OC)c([C@H]3OC[C@]4(O)[C@@H](Oc5c(OC)cccc5OC)OC[C@H]34)cc2O1` (mixture of isomers), in the assay on Musca domestica [2], the Ratio is reported as 0.0003. Further, the LD50 with Musca domestica [1] is 1 µg.

As to `COc1cc2c(cc1[C@H]1OC[C@]3(O)[C@@H](Oc4c(OC)cccc4OC)OC[C@H]13)OCC(c1ccc3c(c1)OCO3)O2` (mixture of isomers), the Ratio with Musca domestica [2] amounted to 0.0003. For the same molecule, in the assay on Musca domestica [1], the LD50 turned out to be 1 µg.

Consider `COC[C@H]1Oc2cc([C@H]3OC[C@]4(O)[C@@H](Oc5c(OC)cc6c(c5OC)OCO6)OC[C@H]34)c(OC)cc2O[C@@H]1c1ccc2c(c1)OCO2` [(+)-HAEDOXAN A], for which the LD50 in the assay with Musca domestica [1] turned out to be 0.00025 µg.
